Here are results for 1 molecule from US11401555B2, “Genetic polymorphisms associated with stroke, methods of detection and uses thereof” (CELERA CORPORATION, priority 2008, dated 2022).

Assay [1] in a line: Stroke statin response (SSR) in the CARE pravastatin trial: pravastatin-treated versus placebo-treated, by SNP genotype. The assay is classed as in vivo, human. As to conditions: for HR (hazard ratio for stroke, pravastatin vs placebo): rs10757274 (hCV26505812), mode GEN, genotype AA, placebo = ref. The text has this:
(hCV26505812) for association with SSR in CARE (Table 37) and PROSPER (Table 38), including both unadjusted and adjusted analyses (adjusted for factors such as age, gender, smoking status, hypertension, diabetes, BMI, and LDL and HDL levels). Table 37 provides results in CARE, and Table 38 provides results in PROSPER (whether each analysis is unadjusted or adjusted is indicated in the “adjust” column in Table 37, or by “unadj” and “adj” column labels in Tables 38). With respect to Tables 22-32 and 37-38, the columns labeled “Genotype” (in Tables 22-28 and 37), “Geno_Placebo” (in Tables 29-30 and 38), and “Geno_Resp” (in Tables 31-32 and 38) indicate the genotype which the given stroke risk or SSR results correspond to. […] See Example Six below for further information relating to Tables 22-32 and 37-38. […] As used herein, the term “benefit” (with respect to a preventive or therapeutic drug treatment) is defined as achieving a reduced risk for a disease that the drug is intended to treat or prevent (e.g., stroke) by administrating the drug treatment, compared with the risk for the disease in the absence of receiving the drug treatment (or receiving a placebo in lieu of the drug treatment) for the same genotype. The term “benefit” may be used herein interchangeably with terms such as “respond positively” or “positively respond”. For stroke risk and statin response associations based on samples from the CARE and PROSPER trials described herein, stroke risk is assessed by comparing the risk of stroke for a given genotype with the risk of stroke for a reference genotype either in the placebo arm of the trial or in the whole study population of the trial, and statin response is assessed by comparing the risk of stroke in the pravastatin arm of the trial with the risk of stroke in the placebo arm of the trial for the same genotype. […] In CARE, SNPs were analyzed for association with stroke risk or SSR. […] Also in the CARE and PROSPER trials, the chromosome 9p21 SNP […] (hCV26505812) was analyzed further for association with SSR, including unadjusted and adjusted analysis. Adjusted analysis in CARE (Table 37) was adjusted for age, gender, smoking status, hypertension, diabetes, body mass index (BMI), and LDL and HDL levels, and adjusted analysis in PROSPER (Table 38) was adjusted for country, gender, age, LDL, HDL, smoking status (current vs. past or never), history of hypertension, and diabetes. Table 37 provides results in CARE, and Table 38 provides results in PROSPER (whether each analysis is unadjusted or adjusted is indicated in the “adjust” column in Table 37, or by “unadj” and “adj” column labels in Tables 38). All the p-values (including Pint values) provided in Tables 37-38 are two-sided p-values.

A short description of assay [2]: Stroke statin response (SSR) in the PROSPER pravastatin trial: pravastatin-treated versus placebo-treated, by SNP genotype. The format is in vivo, human.

`CC[C@H](C)C(=O)O[C@H]1C[C@H](O)C=C2C=C[C@H](C)[C@H](CC[C@@H](O)C[C@@H](O)CC(=O)O)[C@H]21` [pravastatin]: in assay [1] (heterozygous carriers of SNP rs10757274 (chromosome 9p21), adjusted for traditional risk factors), the “HR (hazard ratio) for stroke events, pravastatin-treated versus placebo-treated” value was 0.61. For the same molecule, the “HR (hazard ratio for stroke, pravastatin vs placebo)” value stood at 0.92 in assay [1] (adjusted (age, male, current smoking, hypertension, diabetes, BMI, baseline LDL, HDL)) and 0.85 in assay [1] (unadjusted). For the same molecule, in assay [1] (rs10757274, adjusted analysis, mode REC, genotype GA + AA, pravastatin arm, total 1018), the “EVENTS (number of stroke events)” value was determined as 47. The “HR_RESP (hazard ratio, pravastatin-treated versus placebo-treated)” value in assay [2] (hCV2091644 rs1010 VAMP8, GENO_RESP CC + CT, MODE DOM, STRATA no hist) came out at 0.786; in assay [2] (hCV2169762 rs1804689 HPS1, GENO_RESP GG + GT, MODE REC, STRATA hist), 1.028; in assay [2] (hCV2169762 rs1804689 HPS1, GENO_RESP TT + GT, MODE DOM, STRATA no hist), 1.266; in assay [2] (hCV29539757 rs10110659 KCNQ3, GENO_RESP CC + AC, MODE REC, STRATA hist) it was 1.009. Further, the EVENTS_RESP in assay [2] (hCV2169762 rs1804689 HPS1, GENO_RESP TT, MODE GEN, STRATA hist) is on record as 5.
